According to ChEMBL document CHEMBL1201862, “PubChem BioAssay data set” (2004):
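Assay format: 96-well plates, 48-hour exposure. GI50 is the concentration that inhibits growth by half.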 Active and inactive are the calls of the source. No stated cut-off is given here; in the data, active = GI50 up to about 1.1 µM and inactive = higher.

Key:
Assay in all cases: NCI anticancer screen, dose series, 48 h
Hs-578T = tested on: Hs-578T
A498 = tested on: A498
SNB-75 = tested on: SNB-75
SW-620 = tested on: SW-620
U-251 = tested on: U-251
MCF7 = tested on: MCF7
Malme-3M = tested on: Malme-3M
BT-549 = tested on: BT-549
SF-268 = tested on: SF-268
OVCAR-3 = tested on: OVCAR-3
PC-3 = tested on: PC-3
UO-31 = tested on: UO-31
NCI-H226 = tested on: NCI-H226
SN12C = tested on: SN12C
NCI-H460 = tested on: NCI-H460
ACHN = tested on: ACHN
DU-145 = tested on: DU-145
HCT-116 = tested on: HCT-116
SK-MEL-28 = tested on: SK-MEL-28
NCI-H23 = tested on: NCI-H23

| SMILES | GI50 (Hs-578T) | GI50 (A498) | GI50 (SNB-75) | GI50 (SW-620) | GI50 (U-251) | GI50 (MCF7) | GI50 (Malme-3M) | GI50 (BT-549) | GI50 (SF-268) | GI50 (OVCAR-3) | GI50 (PC-3) | GI50 (UO-31) | GI50 (NCI-H226) | GI50 (SN12C) | GI50 (NCI-H460) | GI50 (ACHN) | GI50 (DU-145) | GI50 (HCT-116) | GI50 (SK-MEL-28) | GI50 (NCI-H23) |
| --- | --- | --- | --- | --- | --- | --- | --- | --- | --- | --- | --- | --- | --- | --- | --- | --- | --- | --- | --- | --- |
| CN(N=O)c1ccc(/C=C/c2ccnc3ccccc23)cc1 | > 100 µM (inactive) | 60.4 µM (inactive) | 25.1 µM (inactive) | 73.3 µM (inactive) | 54.8 µM (inactive) | 53.8 µM (inactive) | 86.3 µM (inactive) | > 100 µM (inactive) | 79.8 µM (inactive) | 95.1 µM (inactive) | 76.4 µM (inactive) | 30.4 µM (inactive) | 47.8 µM (inactive) | 37.6 µM (inactive) | 34.2 µM (inactive) | 47 µM (inactive) | 61.5 µM (inactive) | 34 µM (inactive) | > 100 µM (inactive) | > 100 µM (inactive) |
| C=CC(Br)(CBr)CCC(Br)C(C)(C)Cl (stereo not given) | 3.4 µM (inactive) | 5.16 µM (inactive) | 2.71 µM (inactive) | 2.05 µM (inactive) | 1.53 µM (inactive) | 1.83 µM (inactive) | 6.27 µM (inactive) | 6.52 µM (inactive) | 2.02 µM (inactive) | 2.23 µM (inactive) | 3.27 µM (inactive) | 1.65 µM (inactive) | 25.3 µM (inactive) | 5.48 µM (inactive) | 2.21 µM (inactive) | 2.42 µM (inactive) | 3.37 µM (inactive) | 1.64 µM (inactive) | 2.36 µM (inactive) | 6.31 µM (inactive) |
| CCCCCCCC(=O)N/N=C/c1ccc(Sc2nccn2C)c([N+](=O)[O-])c1 | 18.5 µM (inactive) | 15.2 µM (inactive) | 15.5 µM (inactive) | 14.9 µM (inactive) | 16.2 µM (inactive) | 16.6 µM (inactive) | 14.4 µM (inactive) | 16.1 µM (inactive) | 15.7 µM (inactive) | 15.6 µM (inactive) | 15.6 µM (inactive) | 10.3 µM (inactive) | 14.5 µM (inactive) | 14.5 µM (inactive) | 14.9 µM (inactive) | 21.9 µM (inactive) | 18.4 µM (inactive) | 14.4 µM (inactive) | 13.9 µM (inactive) | 18.2 µM (inactive) |
| O=C(CNc1ccccc1[N+](=O)[O-])Nn1c(-c2ccccc2)nc2ccccc2c1=O | 27.4 µM (inactive) | 26.2 µM (inactive) | 11.3 µM (inactive) | 19.1 µM (inactive) | 19.2 µM (inactive) | 19.1 µM (inactive) | 23.9 µM (inactive) | 17.9 µM (inactive) | 32.4 µM (inactive) | 29.4 µM (inactive) | 22.2 µM (inactive) | 18.7 µM (inactive) | 29.2 µM (inactive) | 25.8 µM (inactive) | 20.9 µM (inactive) | 22.2 µM (inactive) | 28.7 µM (inactive) | 16.1 µM (inactive) | 23.5 µM (inactive) | 25.8 µM (inactive) |
| O=[N+]([O-])c1cccc2nc3ccccc3c(NCCCN3CCOCC3)c12 | 0.0405 µM (active) | < 0.0146 µM (active) | 0.0387 µM (active) | < 0.01 µM (active) | 0.0276 µM (active) | < 0.0116 µM (active) | 0.0142 µM (active) | 0.0273 µM (active) | 0.0226 µM (active) | 0.0184 µM (active) | 0.0219 µM (active) | 0.0144 µM (active) | 0.0213 µM (active) | < 0.0132 µM (active) | < 0.01 µM (active) | < 0.01 µM (active) | < 0.01 µM (active) | < 0.01 µM (active) | 0.034 µM (active) | < 0.0129 µM (active) |
| CC(=O)/C=C1\Nc2sc(C)c(C)c2C(=O)S1 | 20.5 µM (inactive) | > 100 µM (inactive) | 24 µM (inactive) | 63.5 µM (inactive) | 50.2 µM (inactive) | 29.6 µM (inactive) | 30.6 µM (inactive) | 53 µM (inactive) | 28.8 µM (inactive) | 44.1 µM (inactive) | 25.4 µM (inactive) | 54 µM (inactive) | 29.2 µM (inactive) | 84.3 µM (inactive) | 10 µM (inactive) | 74.8 µM (inactive) | 69.7 µM (inactive) | 31.6 µM (inactive) | > 100 µM (inactive) | 35.5 µM (inactive) |
